Test results reported in patent EP4640206A1, “NISIN FOR INHIBITING BIOFILMS” (SkyLab AG, priority 2024, dated 2025).

Test system: S.mutans biofilms
Experiment: Follow-up observation of pH of washes of a laboratory model of S. mutans biofilms in 10% sucrose
Format: cell-based, Streptococcus mutans
Method: Example No. 2. Follow-up observation of pH of washes of a laboratory model of S. mutans biofilms.
Inoculum of S.mutans control strain was prepared from an ampoule. The ampoule with the dried strain was opened sterilely over a drier or a tray. The upper end of the ampoule was heated on a burner flame, and paraffin was removed; then a piece of sterile absorbent cotton moistened in sterile water was carefully touched to the pulled end of the ampoule so that a small crack appeared, and the same wet cotton was passed around the tip of the ampoule. After the crack had formed, the end of the ampoule was removed with a light blow of tweezers. After opening the ampoule, 0.3-0.5 ml of heart-brain broth was sterilely poured in. After dissolution of the dry contents, the ampoule was transferred with a Pasteur pipette into tubes with 2 ml of heart-brain broth and grown at 37°C for 2 hours in a thermostat in 5% CO2 medium. To restore full viability, 1-2 passages on nutrient media appropriate for the microbes of the species were required. 2 Petri dishes with agar containing 5% horse blood were seeded with 0.1 ml of a 2-hour culture on heart-brain broth of the strain. Petri dishes were incubated at 37°C for 18 hours in an incubator containing 5% CO2. Gram stained smears were prepared from the grown colonies to assess the tinctorial, phenotypic properties and homogeneity of bacteria. Species membership was confirmed using MALDI-TOF reference bases.
Aqueous solutions of nisin in concentrations of 0.004 and 0.008% were taken as the working solutions for testing. […] Distilled water was used as a negative control. […] Urea was chosen due to its ability to alkalinize the environment in bacterial biofilms (Jadon et al., 2018). During the assay, a 10% sucrose solution was used, which is known to be readily metabolized by cariogenic bacteria to acid, thus contributing to the overall acidification of the medium.
The contents of the wells were extracted using an aspirator. All 6 wells of the first row were filled with 1 ml of deionized water and left for 5 min. The water was extracted with an aspirator; 1 ml of the test solution was added into the wells; in 1 min the component was removed, the wells were glazed for 1 min with deionized water, then it was removed. 250 µl of 10% sucrose was added to the wells and biofilms were scraped off the well walls with a disposable plastic loop. The resulting suspension was transferred by pipette into three Eppendorf tubes: contents of wells 1 and 2 into Eppendorf tube No. 1, contents of wells 3 and 4 into Eppendorf tube No. 2, contents of wells 5 and 6 into Eppendorf tube No. 3; next, the measurement of pH started immediately. Time points of the measurement are: 0, 1, 2, 3, 4, 5, 6, 7, 8, 9, 10, 15, 20, 30 min. After the test was finished, the electrode was washed and the described procedure was repeated for the next solution under study.

## NC(N)=O [Urea, reference compound]
Urea 0.5%, 10% sucrose, 0 min
  pH of mechanically disrupted S.mutans biofilms: 6.33±0.03
Urea 0.5%, 10% sucrose, 1 min
  pH of mechanically disrupted S.mutans biofilms: 6.32±0.006
Urea 0.5%, 10% sucrose, 1 min vs previous time point
  pH change (in brackets), S.mutans biofilms: -0.01
Urea 0.5%, 10% sucrose, 2 min
  pH of mechanically disrupted S.mutans biofilms: 6.22±0.01
Urea 0.5%, 10% sucrose, 2 min vs previous time point
  pH change (in brackets), S.mutans biofilms: -0.1
Urea 0.5%, 10% sucrose, 3 min
  pH of mechanically disrupted S.mutans biofilms: 6.15±0.006
Urea 0.5%, 10% sucrose, 3 min vs previous time point
  pH change (in brackets), S.mutans biofilms: -0.07
Urea 0.5%, 10% sucrose, 4 min
  pH of mechanically disrupted S.mutans biofilms: 6.09±0.006
Urea 0.5%, 10% sucrose, 4 min vs previous time point
  pH change (in brackets), S.mutans biofilms: -0.06
Urea 0.5%, 10% sucrose, 5 min
  pH of mechanically disrupted S.mutans biofilms: 6.06±0
Urea 0.5%, 10% sucrose, 5 min vs previous time point
  pH change (in brackets), S.mutans biofilms: -0.03
Urea 0.5%, 10% sucrose, 6 min
  pH of mechanically disrupted S.mutans biofilms: 6.04±0
Urea 0.5%, 10% sucrose, 6 min vs previous time point
  pH change (in brackets), S.mutans biofilms: -0.02
Urea 0.5%, 10% sucrose, 7 min
  pH of mechanically disrupted S.mutans biofilms: 6.02±0.006
Urea 0.5%, 10% sucrose, 7 min vs previous time point
  pH change (in brackets), S.mutans biofilms: -0.02
Urea 0.5%, 10% sucrose, 8 min
  pH of mechanically disrupted S.mutans biofilms: 6.0±0.01
Urea 0.5%, 10% sucrose, 8 min vs previous time point
  pH change (in brackets), S.mutans biofilms: -0.02
Urea 0.5%, 10% sucrose, 9 min
  pH of mechanically disrupted S.mutans biofilms: 5.93±0.02
Urea 0.5%, 10% sucrose, 9 min vs previous time point
  pH change (in brackets), S.mutans biofilms: -0.07
Urea 0.5%, 10% sucrose, 10 min
  pH of mechanically disrupted S.mutans biofilms: 5.83±0.02
Urea 0.5%, 10% sucrose, 10 min vs previous time point
  pH change (in brackets), S.mutans biofilms: -0.1
Urea 0.5%, 10% sucrose, 15 min
  pH of mechanically disrupted S.mutans biofilms: 5.74±0.02
Urea 0.5%, 10% sucrose, 15 min vs previous time point
  pH change (in brackets), S.mutans biofilms: -0.09
Urea 0.5%, 10% sucrose, 20 min
  pH of mechanically disrupted S.mutans biofilms: 5.46±0.02
Urea 0.5%, 10% sucrose, 20 min vs previous time point
  pH change (in brackets), S.mutans biofilms: -0.28
Urea 0.5%, 10% sucrose, 30 min
  pH of mechanically disrupted S.mutans biofilms: 5.24±0.006
Urea 0.5%, 10% sucrose, 30 min vs previous time point
  pH change (in brackets), S.mutans biofilms: -0.22
Urea 0.5%, 10% sucrose, compared to the initial value
  Value of pH decrease within 30 min. of measurement (%): -17.22%
Urea in concentration of 0.5%, compared to the negative control
  ability to stabilize pH in monospecies cariogenic biofilms: no ability to stabilize pH
